Patent EP1020531A2, “Use of spore adhesion assays in fungicide screening” (priority 1999, dated 2000)
≈ marks a conversion by molar mass, not a printed value.

How the values were obtained:
[1] = tested on: Botrytis cinerea spores; assay: Spore adhesion assay in polystyrene counting vials (Coulter Counter); type: cell-based; settings: 25°C, 5.5 h; for EC50: Botrytis cinerea, read-out: Inhn. of Spore Adhesion (EC50, ppm) Counting vials
Protocol: (§1) Botrytis cinerea was grown at room temperature under fluorescent lights on potato dextrose agar (PDA), and subcultured every 14 days. To prepare spore suspensions, 20 ml sterile milliQ™ water was added to plates (10-14 days old) and the surface scraped gently with a sterile loop. The fluid was filtered through glass wool to remove mycelial fragments, then the spore density was adjusted to the desired concentration.
Various fungicides were evaluated for their abilities to inhibit germination-associated spore adhesion to polystyrene counting vials, polymethylpentene (Permanox®) chamber slides and 96-well flat-bottomed polystyrene microtiter plates, and for their effects on spore germination and mycelial growth (table below). Adhesion assays in chamber slides and germination assays were performed as in Example 1 with incubation at 25°C for 5.5 h. Adhesion assays in counting vials were conducted in 20 ml capacity polystyrene counting vials (VWR cat. no. 14310-640). Counting vials received 5 µl of DMSO (controls) or test compound dissolved in DMSO, followed by 500 µl of SDB. Aqueous spore suspension (500 µl) at 200,000 spores/ml was added, mixed gently and the vials or slides incubated at 25°C for 5.5 h. To determine the numbers of unbound spores 15 ml of counting fluid was added, vials were capped and inverted gently 5 times, then counted using a Coulter Counter®.

[2] = tested on: Botrytis cinerea spores; assay: Spore adhesion assay in 96-well polystyrene microtiter plates (sulforhodamine B); type: cell-based; settings: 25°C, 5.5 hours; for EC50: Botrytis cinerea, read-out: Inhn. of Spore Adhesion (EC50, ppm) Microtiter plates
Protocol: as §1
(§2) For adhesion assays in microtiter plates, stock solutions of test compounds were prepared in DMSO then diluted in SDB such that the DMSO concentration after dilution was ≤2%. Two-fold serial dilutions of these test compound solutions were made in SDB (100 µl) in 96-well flat-bottomed microtiter plates. Spore suspension (100 µl at 2X10^5 spores/ml) was added to the wells, and the plates were incubated at 25°C for 5.5 hours. The medium containing unbound spores was removed by inverting and flicking the microtiter plate to remove as much liquid as possible.

[3] = tested on: Botrytis cinerea spores; assay: microbe, parasite or virus in culture; type: cell-based; settings: 5.5 h; for EC50: Botrytis cinerea, read-out: Inhn. of Spore Adhesion (EC50, ppm) Chamber Slides
[4] = tested on: Botrytis cinerea spores; assay: Spore germination assay (microscopic examination); type: cell-based; settings: 25°C, 5.5 h; for EC50: Botrytis cinerea, read-out: Inhn. of Germination EC50 (ppm)
[5] = tested on: Colletotrichum lagenarium spores; assay: Spore adhesion assay in 96-well polystyrene microtiter plates; type: cell-based; settings: for Inhn. of Adhesion (EC50, ppm) Microtiter plates: SDB with Tween 20 (40 ppm), 8 h
Protocol: as §2
Colletotrichum lagenarium was grown at 25°C in the dark on potato dextrose agar and subcultured every 7-14 days. To prepare spore suspensions, 15 ml sterile water was added to plates (7-10 days old) and the plates agitated gently on a gyrotary shaker for 10 min to release spores. The resulting spore suspension was filtered through glass wool and adjusted to the desired concentration. Spore adhesion assays and germination assays were conducted as outlined in Example 1 for Botrytis except that the SDB medium contained Tween™ 20 (40 ppm), and the spore inoculum was prepared at 5X10^5 spores/ml. Data in the table below show a time-dependent adhesion of spores to the slide which closely parallels the time-course for spore germination.
Various fungicides were evaluated for their abilities to inhibit spore adhesion in 96-well flat-bottomed polystyrene microtiter plates and Permanox® chamber slides, and for their effects on spore germination and mycelial growth. Assays were conducted as outlined in Example 2 for Botrytis except that the SDB medium contained Tween™ 20 (40 ppm), the spore inoculum was prepared at 5X10^5 spores/ml, and 8 h incubation was used for the adhesion and germination assays. For each compound tested, EC50 values for inhibition of adhesion to microtiter plates and chamber slides were similar. Spore adhesion was sensitive to all compounds which inhibited germination at low concentrations (<0.2 ppm).

[6] = tested on: Colletotrichum lagenarium spores; type: cell-based; settings: SDB with Tween 20 (40 ppm), 8 h
[7] = tested on: Colletotrichum lagenarium spores; assay: Spore germination assay; type: cell-based; settings: for Germination EC50 (ppm): 8 h
[8] = tested on: Colletotrichum lagenarium; assay: Mycelial growth inhibition, poison agar assay; type: cell-based
[9] = tested on: Magnaporthe grisea; type: cell-based; settings: for EC50 (ppm): inhibition of adhesion, YEG, 25°C, 6 hours; for inhibition of germination-associated adhesion: statement in words
[10] = tested on: Botrytis; assay: Mycelial growth inhibition, poison agar assay; settings: for EC50: Botrytis, 72 h, read-out: Mycelial Growth Inhn. EC50 (ppm)
Protocol: Inhibition of mycelial growth was evaluated in poison agar assays. A 4-fold dilution series of each fungicide to be tested was prepared in DMSO and 125 µl of each dilution was added to 25 ml of molten malt extract agar (20 g malt extract, 20 g glucose, 1 g peptone and 20 g agar per liter). The medium containing test compound was poured immediately into 9 cm diameter petri dishes. Two replicate plates were used for each treatment. Each plate was inoculated with a 7 mm diameter plug taken from the growing edge of a Botrytis culture on PDA. Colony diameters were measured after growth for 3 days in the dark at 25°C. EC50 values were determined from dose-response curves.

[11] = tested on: Aspergillus nidulans spores; assay: Spore adhesion assay in 96-well polystyrene microtiter plates; type: cell-based; settings: statement in words
Protocol: as §2
Various fungicides were evaluated for their abilities to inhibit spore adhesion in 96-well flat-bottomed polystyrene microtiter plates. Adhesion assays were conducted as outlined in Example 2 for Botrytis except that the spore inoculum was prepared at 2X10^6 spores/ml, and plates were incubated at 37°C for 8 h.

[12] = tested on: Puccinia recondita; assay: Germination-associated spore adhesion assay in microtiter plates (sulforhodamine B); type: cell-based; settings: for EC50 (ppm): inhibition of adhesion, 0.05% Tween 20, 19°C, 4 hours; for inhibition of germination-associated adhesion: statement in words
[13] = tested on: Botrytis cinerea spores; assay: Spore adhesion to Plexiglas chamber slides; type: cell-based
Protocol: Assays were conducted in custom-made chamber slides made of Plexiglas®. Chamber slide wells received 5 µl of DMSO (controls) or kresoxim-methyl dissolved in DMSO, followed by 500 µl of SDB. Aqueous spore suspension (500 µl) at 200,000 spores/ml was added, mixed gently and the vials or slides incubated at 25°C for the desired period. The number of nonadhered spores was determined by transferring the fluid to a counting vial, washing the chamber slide well once by adding 1 ml of counting fluid to the well, shaking gently, and then adding the wash to the counting vial. Counting fluid (14 ml) was added to the vial, and the spores counted using a Coulter Counter®. The number of adhered spores was determined by subtracting the number of nonadhered spores from the total number of spores and was expressed as a percentage (% Adhesion).

[14] = tested on: Botrytis cinerea spores; assay: Spore adhesion to borosilicate glass vials; type: cell-based
[15] = tested on: Botrytis cinerea spores; assay: Spore adhesion to polyethylene vials; type: cell-based
[16] = tested on: Botrytis cinerea spores; assay: Spore adhesion to polypropylene vials; type: cell-based; settings: 7 hours

SMILES | Inhn. of Adhesion (EC50, ppm) Microtiter plates [5] [ppm] | Inhn. of Adhesion (EC50, ppm) Chamber slides [6] [ppm] | Mycelial Growth Inhn. EC50 (ppm) [8] [ppm] | EC50 (ppm) [9] [ppm] | inhibition of germination-associated adhesion [9] | EC50 [2] [µg/mL] | EC50 [4] [µg/mL] | Germination EC50 (ppm) ([7]; SDB with Tween 20 (40 ppm)) | EC50 [10] [µg/mL] | EC50 [1] [µg/mL] | EC50 [3] [µg/mL] | inhibition of spore adhesion [11] | EC50 (ppm) [12] [ppm] | inhibition of germination-associated adhesion [12] | further results
CO/C=C(/C(=O)OC)c1ccccc1Oc1cc(Oc2ccccc2C#N)ncn1 [Azoxystrobin] | 0.027 | 0.014 | >10 | 0.064 | potent inhibitors of germination-associated adhesion |  |  |  |  |  |  |  |  |  | Inhn. of Spore Adhesion (EC50, ppm) Counting vials [1]: 0.19 ppm; Inhn. of Spore Adhesion (EC50, ppm) Microtiter plates [2]: 0.19 ppm; Inhn. of Spore Adhesion (EC50, ppm) Chamber Slides ([3]; Permanox chamber slides, 25°C): 0.28 ppm; Inhn. of Germination EC50 (ppm) [4]: 0.32 ppm; Germination EC50 (ppm) ([7]; 40 ppm): 0.010 ppm; Mycelial Growth Inhn. EC50 (ppm) ([10]; malt extract agar, 3 days, 25°C): 3.05 ppm
COC(=O)Nc1nc2ccccc2[nH]1 [Carbendazim] | 1.96 | >10 | 0.060 |  |  | > 10 | > 25 | >10 | 0.045 (≈ 0.235 µM) |  |  |  |  |  | activity in the spore adhesion assay ([5]; statement in words on adhesion to microtiter plates and chamber slides): little or no activity; inhibition of germination ([7]; statement in words): did not inhibit germination
N#Cc1c(Cl)c(Cl)c(Cl)c(C#N)c1Cl [Chlorothalonil] | 0.068 | 0.104 | 7.10 | 0.038 | potent inhibitors of germination-associated adhesion | 0.1 (≈ 0.376 µM) | 0.067 (≈ 0.252 µM) | 0.005 | 0.35 (≈ 1.32 µM) | 0.093 (≈ 0.35 µM) | 0.089 (≈ 0.335 µM) | highly potent inhibitors of spore adhesion | 0.473 | inhibited germination-associated adhesion | 
N#Cc1c[nH]cc1-c1cccc(Cl)c1Cl [Fenpiclonil] |  |  |  |  |  | 0.09 (≈ 0.38 µM) | < 0.0312 |  | 0.0015 (≈ 0.00633 µM) | 0.096 (≈ 0.405 µM) | 1.89 (≈ 7.97 µM) |  |  |  | 
O=[N+]([O-])c1cc(C(F)(F)F)c(Cl)c([N+](=O)[O-])c1Nc1ncc(C(F)(F)F)cc1Cl [Fluazinam] | <0.019 | 0.007 | 0.017 |  |  | 0.051 (≈ 0.11 µM) | 0.028 (≈ 0.0602 µM) | 0.004 | 0.033 (≈ 0.071 µM) | 0.041 (≈ 0.0882 µM) | 0.071 (≈ 0.153 µM) | highly potent inhibitors of spore adhesion | 0.365 | inhibited germination-associated adhesion | 
O=C1c2ccccc2C(=O)N1SC(Cl)(Cl)Cl [Folpet] |  |  |  |  |  | 0.33 (≈ 1.11 µM) | 0.15 (≈ 0.506 µM) |  | 5.5 (≈ 18.5 µM) | 0.21 (≈ 0.708 µM) | 0.22 (≈ 0.742 µM) |  |  |  | 
CO/N=C(/C(=O)OC)c1ccccc1COc1ccccc1C [Kresoxim-methyl] | 0.026 | 0.054 | >10 | 0.067 | potent inhibitors of germination-associated adhesion | 0.011 (≈ 0.0351 µM) | 0.02 (≈ 0.0638 µM) | 0.015 | 0.28 (≈ 0.894 µM) | 0.014 (≈ 0.0447 µM) | 0.035 (≈ 0.112 µM) | highly potent inhibitors of spore adhesion | 0.016 | inhibited germination-associated adhesion | %Adhesion with kresoxim-methyl, 10 ppm ([13]; 7 hours): 17.4%; %Adhesion with kresoxim-methyl, 10 ppm ([13]; 8 hours): 26.2%; %Adhesion with kresoxim-methyl, 10 ppm ([14]; 6 hours): 23.4%; %Adhesion with kresoxim-methyl, 10 ppm ([14]; 7 hours): 29.6%; %Adhesion with kresoxim-methyl, 10 ppm ([15]; 6 hours): 12.7%; %Adhesion with kresoxim-methyl, 10 ppm ([15]; 7 hours): 15.1%; %Adhesion with kresoxim-methyl, 10 ppm [16]: 18.9%
Cc1cc(C)nc(Nc2ccccc2)n1 [Pyrimethanil] |  |  |  |  |  | > 10 | 8.6 (≈ 43.2 µM) |  | 0.48 (≈ 2.41 µM) | > 25 | > 25 |  |  |  | 
CN(C)C(=S)SSC(=S)N(C)C [Thiram] |  |  |  |  |  | 1.86 (≈ 7.74 µM) | < 0.625 |  | 0.78 (≈ 3.24 µM) | 1.04 (≈ 4.33 µM) | 1.87 (≈ 7.78 µM) |  |  |  | 
C=CC1(C)OC(=O)N(c2cc(Cl)cc(Cl)c2)C1=O (centres unmarked) [Vinclozolin] |  |  |  |  |  | 0.62 (≈ 2.17 µM) | < 0.5 |  | 0.11 (≈ 0.384 µM) | 0.56 (≈ 1.96 µM) | > 5 |  |  |  | 
